± gives the expanded uncertainty stated by the source.
Tests used:
[1] = 298 K; 101.33 kPa; Crystal 2; X-ray diffraction
[2] = Solid-liquid equilibrium temperature; details: 101.3 kPa, DSC
[3] = Molar enthalpy of transition or fusion; details: DSC

mass density [1]: 1471 ± 2 kg/m3
Solid-liquid equilibrium temperature ([2]; Crystal 1): 507 ± 2 K
Solid-liquid equilibrium temperature ([2]; Crystal 2): 453.6 ± 0.3 K
Molar enthalpy of transition or fusion ([3]; Crystal 1): 27.7 ± 0.8 kJ/mol
Molar enthalpy of transition or fusion ([3]; Crystal 2): 1.29 ± 0.13 kJ/mol
Compound: O=C(O)c1cccnc1 [3-carboxylpyridine]

From the NIST ThermoML archive (doi:10.1016/j.jct.2011.11.023)
